Experimental data as given in patent US20160089464A1, “MALODOR REDUCTION COMPOSITIONS” (The Procter & Gamble Company, priority 2014, published 2016).

Assay: Comment Code material properties: vapor pressure, ClogP, probability of ingredient color instability, odor detection threshold, melamine formaldehyde PMC headspace response ratio and leakage, liquid dish neat product liquid-air partition coefficient
Format: physicochemical
[1] = Table 1 materials, each letter of the code is one property class (vapor pressure, ClogP, color instability, odor detection threshold, PMC headspace ratio, PMC leakage, liquid dish liquid-air partition coefficient)
[2] = cell strings several class symbols together, each letter is one property class of L1
[3] = letter codes A-L: vapor pressure, ClogP, probability of ingredient color instability, odor detection threshold, PMC headspace response ratio, PMC leakage, liquid dish liquid-air partition coefficient, Table 1 materials with at least one MORV from 1 to 5

SMILES	Comment Code [1]	Comment Code [2]	Comment Code [3]
CC(C)(C)c1ccc(CCC=O)cc1 [Material 601]	BDHJK		
CC(C)=CCCC(C)CCO (stereo not drawn) [Material 899]		BCHIJKL	
CCOC1CCC(C(C)(C)CC)CC1 (stereo not drawn) [Material 12]		ADEFHJK	
COc1ccc(CC(C)C=O)cc1 (stereo not drawn) [Material 586]	BCHJK		
CC(=O)C=CC1C(C)=CCC(C)C1(C)C (stereo not drawn) [Material 704]	BDHJK		
CCCCCCCCCC=CC=O [Material 806]	BDFHJK		
C=C1C2CCC(C)(OCC)C1CCC2(C)C (stereo not drawn) [Material 606]	BDEFHJK		
CC1C(C)(C)C2CCC3CC(C)(C)OC3C2C1(C)C (stereo not drawn) [Material 679]	ADEFHJK	DEFHJK	
CCC(O)COC1CCCCC1C(C)(C)C (stereo not drawn) [Material 677]	DEFHJK		
CCCCCCCCCCCC(=O)OCc1ccccc1 [Material 644]	DEFHJ		
C=C1CCCC(C)(C)C2C=C(C)CCC12 (stereo not drawn) [Material 707]	BDEFHJK		
CC(C)=CCCC1=CCC(C#N)CC1 (stereo not drawn) [Material 660]	DEFHJK		
CCC/C=C\CO [Material 547]		ACEFHIKL	
CCCC(O)Cc1ccccc1 (stereo not drawn) [Material 730]	CEFHK		
CC1=C(C/C=C(\C)C=O)C(C)(C)CCC1 [Material 602]		DHJK	
CC(C)=CCCC(C)CCO (stereo not drawn) [Material 517]		BCHIJKL	
C=CCCCCCCCCC(=O)OCCCC [Material 599]	DEFHJK		
CCc1ccccc1CC(C)(C)C=O [Material 354]		BDHJK	
CC1=CC2C(CC1)C(C)=CCC2C(C)C (stereo not drawn) [Material 698]	DEFHJKL		
C=C1CCCC(C)(C)C1C=C(C)C(C)=O (stereo not drawn) [Material 913]	BDHIJK		
C=CCOC(=O)COc1ccccc1 [Material 743]		BCGK	
CC1=CCCC2(C)CCC(C(C)(C)O)CC12 (stereo not drawn) [Material 712]	DEFHJK	DEFHJK	
CC(C)=CCCC(C)CC=O (stereo not drawn) [Material 889]		ACHIJKL	
CCC(C)(O)/C=C/C=C(C)C (stereo not drawn) [Material 81]		BCEFGIJK	
CCCCCC(C=O)=Cc1ccc(C)cc1 [Material 769]	DHJ		
CC/C=C\CC1=C(C)CCC1=O [Material 526]		BCHIJKL	
CCCCCC1CCCC1=O (stereo not drawn) [Material 469]		BDFHIKL	
CCCC=CCO [Material 851]		ACEFHIKL	
CC1(C)C2CC=C(CCC=O)C1C2 (stereo not drawn) [Material 781]	BCFHJK		

The remaining lines, values ahead:

Comment Code [1]	Comment Code [2]	Comment Code [3]	SMILES
	ADGIJKL		Cc1ccc(C(C)C)cc1 [Material 940]
BDHJK			CCCCCCCCCCC=O [Material 1102]
	DEFHJ	DEFHJ	COC(=O)c1ccccc1/N=C\C1CCC(C)=CC1C (stereo not drawn) [Material 1131]
	DHJK	DHJK	CC(=O)C1=C(C)[C@@H]2C[C@@]3(C1)[C@H](C)CC[C@H]3C2(C)C [Material 1129]
DEFHJK			CC1=CCC(CCC(C)C(C)O)C1(C)C (stereo not drawn) [Material 1023]
	BDEFHJK		CCCOC(=O)[C@H](C)OC(C)(C)CC [Material 1030]
BDEFGJKL	BDEFGJKL		CC1=CCC2(C)CCCC(C)(C)C23CC13 (stereo not drawn) [Material 1060]
	CFHIJK		CC12CCCC(C)(CC1)C2=NO [Material 921]
	BDFGIJKL		CCCCCC1(C)CCC(C)(C)C1=O (stereo not drawn) [Material 1115]
		BCHJKL	COC(=O)OC1CC/C=C\CCC1 (stereo not drawn) [Material 1139]
BDEFHIJKL			CC1CCC(C(C)(C)S)C(=O)C1 (stereo not drawn) [Material 1059]
		BCFHJK	CC1CC(C)(c2ccccc2)OC(C)O1 (stereo not drawn) [Material 1126]
ACFHIJKL			CC1(C)C2CC=C(CC=O)C1C2 (stereo not drawn) [Material 973]
ADHIJKL			C=C1CCCC(C)(C)C1C(=O)OC (stereo not drawn) [Material 1010]
